Results reported in ChEMBL document CHEMBL4052716, “Discovery and development of a novel class of phenoxyacetyl amides as highly potent TRPM8 agonists for use as cooling agents” (Bioorg Med Chem Lett, 2017).

Tests used:
[1] = biological target: T1, Transient receptor potential cation channel subfamily M member 8 (Homo sapiens, UniProt Q7Z2W7); assay: Agonist activity at human TRPM8 expressed in HEK293 cells assessed as increase in intracellular calcium level after 15 mins by Fluo-3-AM dye-based fluorescence assay; assay type: cell-based
Target sequence in this assay (Q7Z2W7 whole entry): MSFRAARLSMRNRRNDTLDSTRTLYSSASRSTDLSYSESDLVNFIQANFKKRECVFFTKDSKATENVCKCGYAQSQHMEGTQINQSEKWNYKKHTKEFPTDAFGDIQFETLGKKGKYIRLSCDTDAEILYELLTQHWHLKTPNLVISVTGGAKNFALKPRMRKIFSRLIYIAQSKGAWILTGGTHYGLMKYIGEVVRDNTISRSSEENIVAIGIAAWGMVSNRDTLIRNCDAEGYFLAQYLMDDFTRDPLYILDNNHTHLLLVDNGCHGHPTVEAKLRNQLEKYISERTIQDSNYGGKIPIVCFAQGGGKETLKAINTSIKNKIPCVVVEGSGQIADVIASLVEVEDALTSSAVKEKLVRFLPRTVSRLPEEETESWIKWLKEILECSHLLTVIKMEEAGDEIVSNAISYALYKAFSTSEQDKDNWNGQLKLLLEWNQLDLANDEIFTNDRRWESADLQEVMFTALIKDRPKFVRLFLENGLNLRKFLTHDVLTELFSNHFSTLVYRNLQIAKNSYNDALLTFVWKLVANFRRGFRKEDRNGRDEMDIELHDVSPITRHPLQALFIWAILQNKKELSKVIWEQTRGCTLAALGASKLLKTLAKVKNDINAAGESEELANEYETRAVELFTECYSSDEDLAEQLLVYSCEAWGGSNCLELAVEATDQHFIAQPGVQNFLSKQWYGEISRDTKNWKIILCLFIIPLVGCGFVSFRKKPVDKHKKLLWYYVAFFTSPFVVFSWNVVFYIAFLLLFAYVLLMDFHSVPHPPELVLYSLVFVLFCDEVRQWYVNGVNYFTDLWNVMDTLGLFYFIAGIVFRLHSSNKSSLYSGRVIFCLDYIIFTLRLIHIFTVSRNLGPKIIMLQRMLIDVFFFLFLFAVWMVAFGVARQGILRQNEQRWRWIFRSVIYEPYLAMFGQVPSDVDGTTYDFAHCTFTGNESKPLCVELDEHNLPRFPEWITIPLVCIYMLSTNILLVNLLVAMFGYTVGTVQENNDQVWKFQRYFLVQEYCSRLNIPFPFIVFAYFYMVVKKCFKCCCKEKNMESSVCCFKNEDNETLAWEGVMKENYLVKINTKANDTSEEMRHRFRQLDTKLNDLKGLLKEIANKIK

[2] = biological target: T1, Transient receptor potential cation channel subfamily M member 8; assay: Potency index, ratio of WS-3 EC50 to compound EC50 for human TRPM8 receptor
Target sequence in this assay (Q7Z2W7 whole entry, looked up): as the sequence (Q7Z2W7 whole entry) above

Homo sapiens = assay: In vivo agonist activity at human TRPM8 in trained human subjects assessed as concentration required to deliver cooling sensation equivalent to 45 uM WS-3 by measuring cooling intensity; assay type: functional

Row | SMILES | EC50 ([1]; read-out: EC50) [nM] | Ratio EC50 [2] | EC50 ([1]; hek293) | Activity (Homo sapiens) [µM]
1 | CCN(Cc1cc[nH]c1)C(=O)COc1ccc(C)cc1 | 21800 | 0.2 | – | –
2 | CCN(Cc1cccnc1)C(=O)COc1ccc(C)cc1 | 15400 | 0.2 | – | –
3 | CCN(Cc1cccs1)C(=O)COc1ccc2c(c1)CCCC2 | 689 | 7 | – | –
4 | Cc1ccc(OCC(=O)N(CCCO)Cc2cccs2)cc1 | 3000 | 1 | – | –
5 | Cc1ccc(OCC(=O)N(Cc2cccs2)CC(C)C)cc1 | 900 | 3 | – | –
6 | CCN(Cc1cccs1)C(=O)COc1ccc(C(=O)O)cc1 | – | – | Not Active | –
7 | CCN(Cc1cccs1)C(=O)COc1ccc(OC)cc1 | 120 | 32 | – | 15
8 | Cc1ccc2oc(C(=O)N(Cc3cccs3)c3ccn[nH]3)cc2c1 | 40 | > 1e+06 | – | 4
9 | Cc1ccc(OCC(=O)N(Cc2cccs2)c2nccs2)cc1 | 2240 | 2 | – | –
10 | CCN(Cc1cccs1)C(=O)C[C@@H](O)c1ccccc1 | – | – | Not Active | –
11 | Cc1ccc(OCC(=O)N(O)Cc2cccs2)cc1 | 8000 | 0.4 | – | –
12 | Cc1ccc(OCC(=O)N(Cc2cccs2)C2CC2)cc1 | 8 | 577 | – | 5
13 | CCN(Cc1cccs1)C(=O)c1cc2cc(C)ccc2n1C | – | – | Not Active | –
14 | CCc1ccc(OCC(=O)N(CC)Cc2cccs2)cc1 | 67 | 66 | – | 5
15 | CON(Cc1cccs1)C(=O)COc1ccc(C)cc1 | 10 | 317 | – | –
16 | CCN(Cc1cccs1)C(=O)COc1ccc(CO)cc1 | 21900 | 0.2 | – | –
17 | Cc1ccc(OCC(=O)N(Cc2cccs2)c2cnn(C)c2)cc1 | 63000 | 0.1 | – | –
18 | Cc1ccc(OCC(=O)N(Cc2cccs2)c2cn[nH]c2)cc1 | 1.4 | 3820 | – | >5
19 | Cc1ccc(OCC(=O)N(Cc2cccs2)c2nccn2C)cc1 | 1790 | 3 | – | –
20 | Cc1ccc(OCC(=O)N(Cc2cccs2)c2ccccn2)cc1 | 200 | 25 | – | 15
21 | Cc1ccc(OCC(=O)N(CCO)Cc2cccs2)cc1 | 900 | 5 | – | –
22 | CCN(Cc1cccs1)C(=O)C(C)Oc1ccc(C)cc1 (stereo not drawn) | 889 | 4 | – | –
23 | CCN(Cc1cccs1)C(=O)COc1ccc(C)cc1O | 8 | 650 | – | 3
24 | CCN(Cc1cccs1)C(=O)COc1ccc(F)cc1 | 422 | 10 | – | –
25 | COc1ccc(OCC(=O)N(Cc2cccs2)c2cc[nH]n2)cc1 | 3.7 | – | – | –

Row | SMILES | EC50 ([1]; read-out: EC50) [nM] | Ratio EC50 [2] | EC50 ([1]; hek293) | Activity (Homo sapiens) [µM]
26 | CCN(Cc1ccncc1)C(=O)COc1ccc(C)cc1 | – | – | Not Active | –
27 | Cc1ccc(OCC(=O)N(Cc2cccs2)C(C)C)cc1 | 70 | 66 | – | –
28 | Cc1ccc(OCC(=O)N(Cc2cccs2)C(C)(C)C)cc1 | 11000 | 0.4 | – | –
29 | COc1ccc2oc(C(=O)N(Cc3cccs3)c3ccn[nH]3)cc2c1 | 1.1 | 30900 | – | 5
30 | O=C(/C=C/c1ccc2c(c1)OCO2)N(Cc1cccs1)c1ccn[nH]1 | 0.002 | > 1e+06 | – | –
31 | COc1ccc(OCC(=O)N(Cc2cccs2)c2ccn[nH]2)cc1 | – | 1140 | – | 5
32 | CCN(Cc1cc[nH]n1)C(=O)COc1ccc(C)cc1 | – | – | Not Active | –
33 | CCN(Cc1cccs1)C(=O)C[C@H](O)c1ccccc1 | 52000 | 0.1 | – | –
34 | Cc1ccc(OCC(=O)N(C)Cc2cccs2)cc1 | 400 | 15 | – | –
35 | CCN(Cc1cccs1)C(=O)COc1ccccc1C | 192 | 18 | – | –
36 | CCN(Cc1cccs1)C(=O)COc1ccc(C#N)cc1 | 1990 | 2 | – | –
37 | Cc1ccc(OCC(=O)N(Cc2cccs2)c2c(C)n[nH]c2C)cc1 | 0.3 | 14700 | – | –
38 | Cc1ccc(OCC(=O)NCc2cccs2)cc1 | 25000 | 0.1 | – | –
39 | CCN(Cc1nccs1)C(=O)COc1ccc(C)cc1 | 3060 | 2 | – | –
40 | Cc1ccc(OCC(=O)N(Cc2cccs2)c2ccn(C)n2)cc1 | 855 | 13 | – | –
41 | CCN(Cc1ccco1)C(=O)COc1ccc(C)cc1 | 489 | 9 | – | 15
42 | Cc1ccc(OCC(=O)N(Cc2cccs2)c2cccnc2)cc1 | 198 | 24 | – | 15
43 | C=CCN(Cc1cccs1)C(=O)COc1ccc(C)cc1 | 20 | 365 | – | 5
44 | CCN(C(=O)COc1ccc(C)cc1)C(C)c1cccs1 (stereo not drawn) | – | – | Not Active | –
45 | Cc1ccc(OCC(=O)N(Cc2cccs2)C2CCCCC2)cc1 | 40000 | 0.1 | – | –
46 | CCN(Cc1cncs1)C(=O)COc1ccc(C)cc1 | 1100 | 4 | – | –
47 | CCN1C(=O)C(Oc2ccc(C)cc2)C1c1cccs1 (stereo not drawn) | – | – | Active | –
48 | CCN(Cc1cccs1)C(=O)COc1ccc(C(F)(F)F)cc1 | 236 | 18 | – | –
49 | CCN(Cc1c[nH]nn1)C(=O)COc1ccc(C)cc1 | 31100 | 0.1 | – | –
50 | CCCc1ccc(OCC(=O)N(CC)Cc2cccs2)cc1 | 1810 | 3 | – | –

Row | SMILES | EC50 ([1]; read-out: EC50) [nM] | Ratio EC50 [2] | EC50 ([1]; hek293) | Activity (Homo sapiens) [µM]
51 | Cc1ccc(OCC(=O)N(Cc2cccs2)c2cnccn2)cc1 | 1240 | 3 | – | –
52 | CCN(Cc1cccs1)C(=O)COc1cccc(C)c1 | 97 | 42 | – | 5
53 | CCN(Cc1ccccn1)C(=O)COc1ccc(C)cc1 | 16000 | 0.2 | – | –
54 | CCN(Cc1ccccc1)C(=O)COc1ccc(C)cc1 | 1880 | 2 | – | –
55 | Cc1ccc(OCC(=O)N(Cc2cccs2)c2c[nH]nc2C)cc1 | 0.4 | 10700 | – | >5
56 | CCN(Cc1ccc(C)s1)C(=O)COc1ccc(C)cc1 | 178 | 18 | – | –
57 | CCN(Cc1cccs1)C(=O)c1cc2cc(C)ccc2s1 | 1600 | 3 | – | –
58 | CCN(Cc1cccs1)C(=O)/C=C/c1ccc2c(c1)OCO2 | 0.7 | 6830 | – | –
59 | CCN(Cc1cccn1C)C(=O)COc1ccc(C)cc1 | 21300 | 0.3 | – | –
60 | Cc1ccc(OCC(=O)N(Cc2cccs2)c2ncccn2)cc1 | 3700 | 1 | – | –
61 | CCN(Cc1cccs1)C(=O)CCc1ccc(C)cc1 | 93 | 40 | – | >5
62 | CCC(C)N(Cc1cccs1)C(=O)COc1ccc(C)cc1 (stereo not drawn) | 2000 | 2 | – | –
63 | CCN(Cc1cccs1)C(=O)c1cc2cc(C)ccc2[nH]1 | 2000 | 2 | – | –
64 | COCCN(Cc1cccs1)C(=O)COc1ccc(C)cc1 | 400 | 11 | – | –
65 | CCN(Cc1cccs1)C(=O)COc1ccc(C(C)C)cc1 | 397 | 10 | – | –
66 | O=C(COc1ccc2c(c1)OCO2)N(Cc1cccs1)c1ccn[nH]1 | 0.6 | 6340 | – | –
67 | CCCN(Cc1cccs1)C(=O)COc1ccc(C)cc1 | 40 | 149 | – | >5
68 | Cc1ccc(OCC(=O)N(Cc2cccs2)c2ccncc2)cc1 | 52 | 77 | – | –
69 | CCN(Cc1cn[nH]c1)C(=O)COc1ccc(C)cc1 | – | – | Active | –
70 | CCN(Cc1cccs1)C(=O)COc1ccc(Cl)cc1 | 39 | 93 | – | –
71 | Cc1ccc(OCC(=O)N(Cc2cccs2)C2COC2)cc1 | 23000 | 0.3 | – | –
72 | Cc1ccc(OC2CCN(Cc3cccs3)C2=O)cc1 (stereo not drawn) | – | – | Not Active | –
73 | CCN(Cc1cccs1)C(=O)COc1ccccc1 | 1400 | 4 | – | –
74 | CCN(Cc1cccs1)C(=O)C(C)(C)Oc1ccc(C)cc1 | 11000 | 0.3 | – | –
